Data published in the NIST ThermoML archive (doi:10.1021/je700546r).
Values joined by “and” are separate entries in the source; they are usually repeats but may differ in a detail not shown here. Equal values may be shown once.

Assay: molar heat capacity at saturation pressure
Details: Small (less than 1 g) adiabatic calorimetry

ON=C1CCCCC1 [cyclohexanone oxime]
Details | molar heat capacity
303.01 K, Crystal 1 | 192.59 J/K/mol
303.67 K, Crystal 1 | 191.89 J/K/mol
303.76 K, Crystal 1 | 191.84 J/K/mol
304.57 K, Crystal 1 | 191.66 J/K/mol
305.34 K, Crystal 1 | 191.58 J/K/mol
305.36 K, Crystal 1 | 191.49 J/K/mol
305.83 K, Crystal 1 | 191.51 J/K/mol
306.14 K, Crystal 1 | 191.69 J/K/mol
306.91 K, Crystal 1 | 191.81 J/K/mol
307.05 K, Crystal 1 | 191.78 J/K/mol
307.6 K, Crystal 1 | 191.89 J/K/mol
307.71 K, Crystal 1 | 191.96 J/K/mol
308.49 K, Crystal 1 | 192.2 J/K/mol
308.74 K, Crystal 1 | 192.41 J/K/mol
309.27 K, Crystal 1 | 192.53 J/K/mol
309.38 K, Crystal 1 | 192.47 J/K/mol
310.07 K, Crystal 1 | 192.72 J/K/mol
310.43 K, Crystal 1 | 193 J/K/mol
310.95 K, Crystal 1 | 193.22 J/K/mol
311.16 K, Crystal 1 | 193.22 J/K/mol
311.68 K, Crystal 1 | 193.28 J/K/mol
312.22 K, Crystal 1 | 193.77 J/K/mol
312.72 K, Crystal 1 | 193.93 J/K/mol
312.94 K, Crystal 1 | 194.04 J/K/mol
313.36 K, Crystal 1 | 194.05 J/K/mol
314.11 K, Crystal 1 | 194.56 J/K/mol
314.48 K, Crystal 1 | 194.7 J/K/mol
314.72 K, Crystal 1 | 194.7 J/K/mol
315.03 K, Crystal 1 | 194.86 J/K/mol
316 K, Crystal 1 | 195.45 J/K/mol
316.25 K, Crystal 1 | 195.55 J/K/mol
316.49 K, Crystal 1 | 195.61 J/K/mol
316.71 K, Crystal 1 | 195.66 J/K/mol
317.89 K, Crystal 1 | 196.42 J/K/mol
318.01 K, Crystal 1 | 196.38 J/K/mol
318.27 K, Crystal 1 | 196.48 J/K/mol
318.38 K, Crystal 1 | 196.46 J/K/mol
319.77 K, Crystal 1 | 197.45 J/K/mol and 197.36 J/K/mol
320.04 K, Crystal 1 | 197.43 J/K/mol
320.11 K, Crystal 1 | 197.4 J/K/mol
321.54 K, Crystal 1 | 198.27 J/K/mol
321.81 K, Crystal 1 | 198.43 J/K/mol
321.98 K, Crystal 1 | 198.37 J/K/mol
323.3 K, Crystal 1 | 199.26 J/K/mol
323.58 K, Crystal 1 | 199.58 J/K/mol
323.8 K, Crystal 1 | 199.44 J/K/mol
325.05 K, Crystal 1 | 200.28 J/K/mol
325.35 K, Crystal 1 | 200.52 J/K/mol
325.62 K, Crystal 1 | 200.47 J/K/mol
326.81 K, Crystal 1 | 201.27 J/K/mol
327.11 K, Crystal 1 | 201.48 J/K/mol
327.43 K, Crystal 1 | 201.55 J/K/mol
328.56 K, Crystal 1 | 202.22 J/K/mol
328.87 K, Crystal 1 | 202.64 J/K/mol
329.24 K, Crystal 1 | 202.56 J/K/mol
330.32 K, Crystal 1 | 203.27 J/K/mol
330.63 K, Crystal 1 | 203.71 J/K/mol
331.06 K, Crystal 1 | 203.58 J/K/mol
331.23 K, Crystal 1 | 203.73 J/K/mol
332.4 K, Crystal 1 | 204.63 J/K/mol
332.88 K, Crystal 1 | 204.71 J/K/mol
332.98 K, Crystal 1 | 204.75 J/K/mol
334.15 K, Crystal 1 | 205.6 J/K/mol
334.7 K, Crystal 1 | 205.74 J/K/mol
334.74 K, Crystal 1 | 205.77 J/K/mol
335.91 K, Crystal 1 | 206.77 J/K/mol
336.49 K, Crystal 1 | 206.75 J/K/mol
336.52 K, Crystal 1 | 206.77 J/K/mol
337.67 K, Crystal 1 | 207.8 J/K/mol
338.25 K, Crystal 1 | 207.78 J/K/mol
338.35 K, Crystal 1 | 207.86 J/K/mol
339.42 K, Crystal 1 | 208.77 J/K/mol
339.99 K, Crystal 1 | 208.85 J/K/mol
340.17 K, Crystal 1 | 209 J/K/mol
341.17 K, Crystal 1 | 209.83 J/K/mol
341.74 K, Crystal 1 | 209.95 J/K/mol
341.99 K, Crystal 1 | 210.15 J/K/mol
342.93 K, Crystal 1 | 210.86 J/K/mol
343.49 K, Crystal 1 | 210.94 J/K/mol
343.81 K, Crystal 1 | 211.29 J/K/mol
344.68 K, Crystal 1 | 212.1 J/K/mol
345.25 K, Crystal 1 | 212.02 J/K/mol
345.63 K, Crystal 1 | 212.36 J/K/mol
346.43 K, Crystal 1 | 213.18 J/K/mol
346.99 K, Crystal 1 | 213.12 J/K/mol
347.45 K, Crystal 1 | 213.43 J/K/mol
348.18 K, Crystal 1 | 214.14 J/K/mol
348.74 K, Crystal 1 | 214.13 J/K/mol
349.27 K, Crystal 1 | 214.58 J/K/mol
349.93 K, Crystal 1 | 215.3 J/K/mol
350.48 K, Crystal 1 | 215.24 J/K/mol
351.09 K, Crystal 1 | 215.74 J/K/mol
351.67 K, Crystal 1 | 216.38 J/K/mol
352.41 K, Crystal 1 | 216.96 J/K/mol
352.91 K, Crystal 1 | 217.26 J/K/mol
353.42 K, Crystal 1 | 217.49 J/K/mol
354.55 K, Crystal 1 | 219.52 J/K/mol
354.73 K, Crystal 1 | 219 J/K/mol
355.16 K, Crystal 1 | 218.64 J/K/mol
363.8 K, Liquid | 272.42 J/K/mol
364.48 K, Liquid | 272.66 J/K/mol
364.59 K, Liquid | 273 J/K/mol
365.34 K, Liquid | 273.22 J/K/mol
365.92 K, Liquid | 273.48 J/K/mol
366.16 K, Liquid | 273.91 J/K/mol
366.88 K, Liquid | 274.16 J/K/mol
367.36 K, Liquid | 274.33 J/K/mol
367.52 K, Liquid | 274.57 J/K/mol
367.73 K, Liquid | 274.96 J/K/mol
368.42 K, Liquid | 275.12 J/K/mol
368.79 K, Liquid | 275.25 J/K/mol
368.96 K, Liquid | 275.31 J/K/mol
